Test results taken from patent US6229011A, “N-aroylphenylalanine derivative VCAM-1 inhibitors” (Hoffman-La Roche Inc., priority 1998, dated 2001).

Experiments:
VLA-4 (α4β1 integrin) [1] = biological target: T1, VLA-4 (α4β1 integrin) (Homo sapiens, UniProt P05556+P13612); assay: cell-based; type: cell-based
Description: Ramos (VLA-4)/VCAM-1 Cell-Based Screening Assay Protocol
Calcein-AM was purchased from Molecular Probes Inc.
VLA-4 (α4β1 integrin) antagonist activity, defined as ability to compete with cell-surface VLA-4 for binding to immobilized VCAM-1, was quantitated using a Ramos-VCAM-1 cell adhesion assay. Ramos cells bearing cell-surface VLA-4, were labeled with a fluorescent dye (Calcein-AM) and allowed to bind VCAM-1 in the presence or absence of test compounds.
Initially, this entailed coating 96 well plates (Nunc Maxisorp) with recombinant human VCAM-1 (100 ng in 100 μl PBS), sealing each plate and allowing the plates to stand at 4° C. for Å 18 hr. The VCAM-coated plates were subsequently washed twice with 0.05% Tween-20 in PBS, and then blocked for 1 hr (room temperature) with 200 μl of Blocking Buffer (1% BSA/0.02% thimerosal) to reduce non-specific binding. Following the incubation with Blocking Buffer, plates were inverted, blotted and the remaining buffer aspirated. Each plate was then washed with 300 μl PBS, inverted and the remaining PBS aspirated.
Test compounds were dissolved in 100% DMSO and then diluted 1:25 in VCAM Cell Adhesion Assay Buffer (4 mM CaCl2, 4 mM MgCl2 in 50 mM TRIS-HCl, pH 7.5) (final DMSO=4%). […] 100 μl/well of each dilution was added to the VCAM-coated plates, followed by 100 μl of Ramos cells (200,000 cells/well in 1% BSA/PBS). […] Plates were inverted to remove non-adherent cells, blotted and 300 μl/well PBS added. Plates were again inverted, blotted and the remaining buffer gently aspirated. 100 μl Lysis Buffer (0.1% SDS in 50 mM TRIS-HCl, pH 8.5) was added to each well and agitated for 2 min on a rotary shaking platform.

VLA-4 (α4β1 integrin) [2] = biological target: T1, VLA-4 (α4β1 integrin); assay: biochemical; type: binding
Description: VLA-4/VCAM-1 Screening Assay
VLA-4 antagonist activity, defined as ability to compete for binding to immobilized VCAM-1, was quantitated using a solid-phase, dual antibody ELISA. VLA-4 (α4β1 integrin) bound to VCAM-1 is detected by a complex of anti-integrin β1 antibody: HRP-conjugated anti-mouse IgG: chromogenic substrate (K-Blue). Initially, this entailed coating 96 well plates (Nunc Maxisorp) with recombinant human VCAM-1 (0.4 μg in 100 μl PBS), sealing each plate and then allowing the plates to stand at 4° C. for Å 18 hr. […] On the day of assay, all plates are washed twice with VCAM Assay Buffer (200 μl/well of 50 mM Tris-HCl. 100 mM NaCl, 1 mM MnCl2), 0.05% Tween 20; pH 7.4). Test compounds are dissolved in 100% DMSO and then diluted 1:20 in VCAM Assay Buffer supplemented with 1 mg/mL BSA (i.e., final DMSO=5%). […] 100 μl per well of each dilution is added to the VCAM-coated plates, followed by 10 μl of Ramos cell-derived VLA-4. These plates are sequentially mixed on a platform shaker for 1 min, incubated for 2 hr at 37° C., and then washed four times with 200 μl/well VCAM Assay Buffer. 100 μl of mouse anti-human integrin β1 antibody is added to each well (0.6 μg/mL in VCAM Assay Buffer+1 mg/mL BSA) and allowed to incubate for 1 hr at 37° C. At the conclusion of this incubation period, all plates are washed four times with VCAM Assay Buffer (200 μl/well). A corresponding second antibody, HRP-conjugated goat anti-mouse IgG (100 μl per well @1:800 dilution in VCAM Assay Buffer+1 mg/mL BSA), is then added to each well, followed by a 1 hr incubation at room temperature and concluded by three washes (200 μl/well) with VCAM Assay Buffer. Color development is initiated by addition of 100 μl K-Blue per well (15 min incubation, room temp) and terminated by addition of 100 μl Red Stop Buffer per well. […] Results are calculated as % inhibition of total binding (i.e. VLA-4+VCAM-1 in the absence of test compound).

VLA-4 = VLA-4 (Homo sapiens, UniProt P05556+P13612); assay: IC50 of table 7, assay not given; settings: table 7, Examples 79-84; assay not stated
[3] = table 14, Ramos cells binding to immobilized VCAM-1, read-out: Ramos IC50
[4] = table 13, competition for binding of Ramos cell-derived VLA-4 to immobilized VCAM-1, read-out: ELISA IC50
[5] = table 9, Examples 97-102, assay not given, values equal ELISA table 13, read-out: IC50
[6] = table 11, Examples 151-155, assay not given, values equal Ramos table 14, read-out: IC50
[7] = table 12, Examples 156-160, assay not given, values equal Ramos table 14, read-out: IC50

T1 sequence (P13612 34-1032): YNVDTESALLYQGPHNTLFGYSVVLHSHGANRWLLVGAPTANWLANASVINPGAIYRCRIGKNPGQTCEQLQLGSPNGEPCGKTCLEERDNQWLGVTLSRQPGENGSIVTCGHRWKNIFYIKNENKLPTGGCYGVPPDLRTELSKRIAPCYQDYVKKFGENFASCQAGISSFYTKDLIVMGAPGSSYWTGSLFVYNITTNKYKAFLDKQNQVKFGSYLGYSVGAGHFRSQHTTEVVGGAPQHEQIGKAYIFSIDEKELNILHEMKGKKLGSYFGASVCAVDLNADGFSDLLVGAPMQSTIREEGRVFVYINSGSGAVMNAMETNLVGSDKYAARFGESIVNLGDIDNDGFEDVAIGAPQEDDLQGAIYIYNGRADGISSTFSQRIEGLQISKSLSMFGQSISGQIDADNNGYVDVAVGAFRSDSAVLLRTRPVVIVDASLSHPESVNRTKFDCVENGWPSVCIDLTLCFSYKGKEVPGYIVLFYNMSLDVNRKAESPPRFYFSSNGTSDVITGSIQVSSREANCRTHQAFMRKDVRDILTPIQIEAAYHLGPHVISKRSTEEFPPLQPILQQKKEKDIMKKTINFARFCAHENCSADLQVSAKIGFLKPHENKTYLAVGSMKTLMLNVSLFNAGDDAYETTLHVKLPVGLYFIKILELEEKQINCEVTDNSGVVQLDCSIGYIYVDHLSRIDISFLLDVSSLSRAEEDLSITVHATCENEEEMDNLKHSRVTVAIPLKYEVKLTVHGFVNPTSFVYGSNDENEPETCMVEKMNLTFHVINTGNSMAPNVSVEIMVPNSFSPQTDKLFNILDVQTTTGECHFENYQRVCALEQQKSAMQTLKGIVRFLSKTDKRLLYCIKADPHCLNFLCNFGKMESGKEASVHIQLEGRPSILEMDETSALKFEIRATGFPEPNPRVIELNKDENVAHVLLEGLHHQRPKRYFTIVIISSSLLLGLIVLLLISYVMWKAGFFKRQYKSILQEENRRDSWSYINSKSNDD
T1 sequence (P05556 21-798): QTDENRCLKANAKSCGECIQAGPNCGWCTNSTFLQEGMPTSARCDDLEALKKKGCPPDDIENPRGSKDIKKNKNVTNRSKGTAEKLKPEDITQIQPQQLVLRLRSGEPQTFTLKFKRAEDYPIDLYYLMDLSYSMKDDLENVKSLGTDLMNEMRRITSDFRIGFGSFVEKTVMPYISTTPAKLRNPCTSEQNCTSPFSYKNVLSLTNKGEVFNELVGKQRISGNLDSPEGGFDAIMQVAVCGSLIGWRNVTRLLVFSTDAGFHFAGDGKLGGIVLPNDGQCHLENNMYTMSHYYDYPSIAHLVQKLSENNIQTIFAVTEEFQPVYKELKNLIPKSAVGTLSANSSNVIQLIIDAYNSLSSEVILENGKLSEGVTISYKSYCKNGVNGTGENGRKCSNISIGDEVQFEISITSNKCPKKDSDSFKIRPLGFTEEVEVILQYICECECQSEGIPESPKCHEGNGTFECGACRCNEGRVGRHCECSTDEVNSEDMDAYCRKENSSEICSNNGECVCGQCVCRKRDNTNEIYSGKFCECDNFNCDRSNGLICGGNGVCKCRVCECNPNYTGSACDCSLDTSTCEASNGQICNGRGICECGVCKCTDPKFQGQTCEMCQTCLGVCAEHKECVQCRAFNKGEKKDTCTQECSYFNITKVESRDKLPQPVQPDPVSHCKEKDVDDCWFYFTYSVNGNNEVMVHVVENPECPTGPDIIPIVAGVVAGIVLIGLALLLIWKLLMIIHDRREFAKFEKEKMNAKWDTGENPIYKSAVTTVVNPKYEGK
Sequence of VLA-4 (P13612 34-1032): as the sequence (P13612 34-1032) above
Sequence of VLA-4 (P05556 21-798): as the sequence (P05556 21-798) above

4-[(2S,4R)-3-Acetyl-2-phenyl-4-(3-pyridinylmethyl)-5-oxo-1-imidazolinyl]-N- [(2-chloro-6-methylphenyl)carbonyl]-L-phenylalanine and 4-[(2R,4R)-3-acetyl-2-phenyl-4-(3-pyridinylmethyl)-5-oxo-1-imidazolinyl)-N-[(2-chloro-6-methylphenyl)carbonyl]-L-phenylalanine [Example 171]
IC50 (VLA-4 (α4β1 integrin) [1]; [3]): 13.5 nM

COc1ccc(Br)c(C(=O)N[C@@H](Cc2ccc(NC(=O)c3c(C)ccnc3C)cc2)C(=O)O)c1 [Example 108]
IC50 (VLA-4 (α4β1 integrin) [2]; [4]): 0.63 nM
IC50 (VLA-4 (α4β1 integrin) [1]; [3]): 22 nM

CC(=O)N1CN(c2ccc(C[C@H](NC(=O)c3c(C)cccc3Cl)C(=O)O)cc2)C(=O)[C@@H]1CC(C)C [Example 101]
IC50 (VLA-4 (α4β1 integrin) [2]; [5]): 9.9 nM

Cc1cccc(Cl)c1C(=O)N[C@@H](Cc1ccc(N2C(=O)[C@@H](CC(C)C)N(C)C2=O)cc1)C(=O)O [Example 82]
IC50 (VLA-4): 56 nM

CC(=O)N1[C@H](CC(C)C)C(=O)N(c2ccc(C[C@H](NC(=O)c3c(C)cccc3Cl)C(=O)O)cc2)[C@@H]1C(C)(C)C [Example 102]
IC50 (VLA-4 (α4β1 integrin) [2]; [5]): 41 nM

Cc1cccc(Cl)c1C(=O)N[C@@H](Cc1ccc(N2C(=O)[C@H](C(C)C)N(C)C2=O)cc1)C(=O)O [Example 80]
IC50 (VLA-4): 24 nM

O=C(N[C@@H](Cc1ccc(NC(=O)c2c(Cl)cccc2Cl)cc1)C(=O)O)c1ccc(Br)cc1Cl [Example 22]
IC50 (VLA-4 (α4β1 integrin) [1]; [3]): 1.32 nM

Cc1cccc(C(=O)N[C@@H](Cc2ccc(NC(=O)c3c(Cl)cccc3Cl)cc2)C(=O)O)c1Cl [Example 21]
IC50 (VLA-4 (α4β1 integrin) [1]; [3]): 1.27 nM

Cc1cc(C[C@H](NC(=O)c2c(C)cccc2Cl)C(=O)O)ccc1NC(=O)CCc1cccc(O)c1 [Example 120]
IC50 (VLA-4 (α4β1 integrin) [2]; [4]): 4.5 nM
IC50 (VLA-4 (α4β1 integrin) [1]; [3]): 439 nM

CSc1ccccc1C(=O)N[C@@H](Cc1ccc(NC(=O)c2c(Cl)cccc2Cl)cc1)C(=O)O [Example 25]
IC50 (VLA-4 (α4β1 integrin) [2]; [4]): 0.42 nM
IC50 (VLA-4 (α4β1 integrin) [1]; [3]): 103 nM

Cc1cccc(Cl)c1C(=O)N[C@@H](Cc1ccc(NC(=O)c2sc(C(C)C)nc2C)cc1)C(=O)O [Example 152]
IC50 (VLA-4 (α4β1 integrin) [1]; [6]): 967 nM

Cc1cc2ncc(C(=O)Nc3ccc(C[C@H](NC(=O)c4c(C)cccc4Cl)C(=O)O)cc3)c(C)n2n1 [Example 155]
IC50 (VLA-4 (α4β1 integrin) [1]; [6]): 644 nM

Cc1cccc(Cl)c1C(=O)N[C@@H](Cc1ccc(NC(=O)c2c(C)noc2C)cc1)C(=O)O [Example 153]
IC50 (VLA-4 (α4β1 integrin) [1]; [6]): 975 nM

Cc1cccc(Cl)c1C(=O)NC(Cc1ccc(N2C(=O)C3Cc4ccccc4CN3C2=O)cc1)C(=O)O (stereo not shown) [Example 83]
IC50 (VLA-4): 72 nM

Cc1nn(-c2ccccc2)nc1C(=O)N[C@@H](Cc1ccc(NC(=O)c2c(Cl)cccc2Cl)cc1)C(=O)O [Example 159]
IC50 (VLA-4 (α4β1 integrin) [1]; [7]): 988 nM

O=C(Nc1ccc(C[C@H](NC(=O)c2c(F)cccc2C(F)(F)F)C(=O)O)cc1)c1c(Cl)cccc1Cl [Example 16]
IC50 (VLA-4 (α4β1 integrin) [2]; [4]): 0.44 nM

Cc1noc(C)c1C(=O)N[C@@H](Cc1ccc(NC(=O)c2c(Cl)cccc2Cl)cc1)C(=O)O [Example 158]
IC50 (VLA-4 (α4β1 integrin) [1]; [7]): 946 nM

Cc1cc(C[C@H](NC(=O)c2c(C)cccc2Cl)C(=O)O)ccc1NC(=O)Cc1cccc(O)c1 [Example 121]
IC50 (VLA-4 (α4β1 integrin) [2]; [4]): 5.8 nM
IC50 (VLA-4 (α4β1 integrin) [1]; [3]): 515 nM

O=C(N[C@@H](Cc1ccc(NC(=O)c2c(Cl)cccc2Cl)cc1)C(=O)O)c1cccc(Cl)c1Cl [Example 20]
IC50 (VLA-4 (α4β1 integrin) [1]; [3]): 1.63 nM

O=C(Nc1ccc(C[C@H](NC(=O)c2cccc3ccccc23)C(=O)O)cc1)c1c(Cl)cccc1Cl [Example 15]
IC50 (VLA-4 (α4β1 integrin) [2]; [4]): 5.9 nM
IC50 (VLA-4 (α4β1 integrin) [1]; [3]): 2.6 nM

O=C(N[C@@H](Cc1ccc(NC(=O)c2c(Cl)cccc2Cl)cc1)C(=O)O)c1ccccc1Cc1ccccc1 [Example 31, 4-[[(2,6-dichlorophenyl)carbonyl]amino]-N-[[(2-phenylmethyl)phenyl]carbonyl]-L-phenylalanine]
IC50 (VLA-4 (α4β1 integrin) [2]; [4]): 0.51 nM

Cc1cc(C[C@H](NC(=O)c2c(C)cccc2Cl)C(=O)O)ccc1NC(=O)c1cccc([N+](=O)[O-])c1 [Example 122]
IC50 (VLA-4 (α4β1 integrin) [2]; [4]): 0.67 nM
IC50 (VLA-4 (α4β1 integrin) [1]; [3]): 430 nM

Cc1cccc(Cl)c1C(=O)N[C@@H](Cc1ccc(N2C(=O)[C@H](C)N(C)C2=O)cc1)C(=O)O [Example 79]
IC50 (VLA-4): 53 nM

COc1ccc(C(=O)N[C@@H](Cc2ccc(NC(=O)c3c(Cl)cccc3Cl)cc2)C(=O)O)c(Cl)c1 [Example 19]
IC50 (VLA-4 (α4β1 integrin) [2]; [4]): 1.87 nM

CCc1cccc(C)c1C(=O)N[C@@H](Cc1ccc(NC(=O)c2c(Cl)cccc2Cl)cc1)C(=O)O [Example 92]
IC50 (VLA-4 (α4β1 integrin) [2]; [4]): 0.42 nM
IC50 (VLA-4 (α4β1 integrin) [1]; table 8, Examples 90-95, read-out: IC50 Ramos): 10 nM
IC50 (VLA-4 (α4β1 integrin) [1]; [3]): 255 nM

Cc1cc(C[C@H](NC(=O)c2c(C)cccc2Cl)C(=O)O)ccc1NC(=O)c1c(Cl)cccc1Cl [Example 123]
IC50 (VLA-4 (α4β1 integrin) [2]; [4]): 1.7 nM
IC50 (VLA-4 (α4β1 integrin) [1]; [3]): 316 nM

CC(=O)N1[C@H](CC(C)C)C(=O)N(c2ccc(C[C@H](NC(=O)c3c(C)cccc3Cl)C(=O)O)cc2)[C@H]1c1ccc(O)cc1 [Example 97]
IC50 (VLA-4 (α4β1 integrin) [2]; [5]): 0.44 nM

CC(C)(C)c1ccccc1C(=O)N[C@@H](Cc1ccc(NC(=O)c2c(Cl)cccc2Cl)cc1)C(=O)O [Example 17]
IC50 (VLA-4 (α4β1 integrin) [2]; [4]): 1.85 nM

CC(=O)N1[C@H](CC(C)C)C(=O)N(c2ccc(C[C@H](NC(=O)c3c(C)cccc3Cl)C(=O)O)cc2)[C@@H]1c1ccc(O)cc1 [Example 98]
IC50 (VLA-4 (α4β1 integrin) [2]; [5]): 2.35 nM

Cc1cccc(Cl)c1C(=O)N[C@@H](Cc1ccc(N2C(=O)[C@H](Cc3ccccc3)N(C)C2=O)cc1)C(=O)O [Example 84]
IC50 (VLA-4): 73 nM

Cc1cccc(Cl)c1C(=O)N[C@@H](Cc1ccc(NC(=O)c2nn(-c3ccccc3)nc2C)cc1)C(=O)O [Example 154]
IC50 (VLA-4 (α4β1 integrin) [1]; [6]): 2470 nM

COc1ccc(Br)c(C(=O)N[C@@H](Cc2ccc(NC(=O)c3c(Cl)cccc3Cl)cc2)C(=O)O)c1 [Example 24]
IC50 (VLA-4 (α4β1 integrin) [1]; [3]): 20 nM

Cc1ccc(Cl)c(C(=O)N[C@@H](Cc2ccc(NC(=O)c3c(Cl)cccc3Cl)cc2)C(=O)O)c1 [Example 23]
IC50 (VLA-4 (α4β1 integrin) [2]; [4]): 0.48 nM
IC50 (VLA-4 (α4β1 integrin) [1]; [3]): 316 nM
